Assay results: PMC11468049 (Fluids and Barriers of the CNS, 2024)

Legend:
[1] = test system: iPSC-derived pericyte-like cells; assay: Aβ42-Hylite488 internalization by pericyte-like cells (confocal microscopy); format: cell-based, human; settings: confocal microscopy (Fig. 5D)
Description: Data are reported as mean ± standard deviation. […] The last column contains the merged images. Scale bars: 10 μm. […] (n = 4 wells of biological replicates per condition) **: p < 0.01 in Student’s t-test. Data are reported as mean ± standard deviation. […] Confocal microscopy images were taken at 5 μm z-slice intervals. All z-slices with Hoechst 33342 nuclear staining were aggregated for maximum intensity projection analysis. Scale bars: 10 μm.

LRP1 [2] = molecular target: T1, LRP1 (Homo sapiens, UniProt Q07954); assay: in vitro Aβ transcytosis assay with LRP1 inhibition by RAP; format: cell-based; settings: APOE3 iPSC-derived BMEC-like cells on Transwell; with and without RAP; 3 h; apical Aβ40 by ELISA; n = 8 wells (Fig. 2D)
T1 construct: endogenous in cells; host or cells: APOE3 human iPSC-derived BMEC-like cells
Method: (§1) Transwells (Corning, 3460) pre-coated with 200 uL 0.5 mg/mL collagen IV (Sigma, C5533) overnight at 37 °C. iPSC-derived BMEC-like cells were seeded at 1 million/cm^2 on Transwells (Corning, 3460) in hECSR media. […] This buffer helps to maintain Aβ in monomeric and denatured state. Stocks were then diluted to 500 nM in hECSR medium immediately before experiments. For experiments conditions when recombinant APOE is added, recombinant APOE2 (Peprotech, 350 − 12), APOE3 (Peprotech, 350-02) or APOE4 (Peprotech, 350-04) were added at concentration of 500 nM. In transcytosis assay, 1.5 mL of hECSR medium with Aβ and/or recombinant APOE was added to the basolateral chamber. 0.5 mL of hECSR media that is Aβ-free and APOE-free was added to the apical chamber. The Transwells were then incubated at 37 °C on a 300 rpm orbital shaker for 3 h. Media samples from the apical chamber were taken and analyzed.
(Fig. 2A). […] (Fig. 2E).

LRP1 [3] = molecular target: T1, LRP1; assay: Aβ42-Hylite488 internalization by pericyte-like cells with LRP1 inhibition by RAP; format: cell-based; settings: APOE3 pericyte-like cells; with or without RAP; confocal MFI; n = 4 (Fig. 5D, E)
Description: Patients with AD commonly have amyloid deposits associated with their brain vasculature, contributing to a pathological condition known as cerebral amyloid angiopathy (CAA). Recently, a role of pericytes in CAA has been reported. We quantified deposition of Aβ42, the Aβ isoform more prone to aggregation, for pericyte-like cells expressing different APOE isoforms. […] The pericyte-like cells were then singularized, washed and fixed, but not permeabilized, for cell surface immunolabeling with an anti-Aβ antibody. […] In the same way, we then examined the impact of APOE genotype on pericyte-like cell internalization of Aβ42.
Pericyte-like cells were then singularized, washed and labeled with anti-Aβ-FITC antibody for flow cytometry quantification of cell surface-associated Aβ42. […] FSC: forward scatter. Histogram is normalized to mode. […] Data are reported as mean ± standard deviation. (D) Representative confocal microscopy images showing accumulation of intracellular Aβ42-Hylite488 with or without LRP1 inhibition by RAP in APOE3 pericyte-like cells. […] (E) Quantification of mean fluorescence intensity (MFI) of Aβ42-Hylite488 accumulated inside APOE3 pericyte-like cells by confocal microscopy. […] (G) Quantification of mean fluorescence intensity (MFI) in maximum intensity projection confocal microscopy images of Aβ42-Hylite488 accumulated inside iPSC-derived pericytes by confocal microscopy. […]

[4] = test system: iPSC-derived BMEC-like cells; assay: in vitro Aβ transcytosis assay (basolateral-to-apical, Transwell); format: cell-based, human; settings: 3 h, 37 °C; for effect of recombinant APOE isoform on Aβ42 trafficking: 500 nM rhAPOE plus 500 nM Aβ42 basolateral
Method: as §1

[5] = APOE KO BMEC-like cells on Transwell, apical ELISA, vs no APOE control, n = 12 (Fig. 3D)

T1 sequence (Q07954 20-4544): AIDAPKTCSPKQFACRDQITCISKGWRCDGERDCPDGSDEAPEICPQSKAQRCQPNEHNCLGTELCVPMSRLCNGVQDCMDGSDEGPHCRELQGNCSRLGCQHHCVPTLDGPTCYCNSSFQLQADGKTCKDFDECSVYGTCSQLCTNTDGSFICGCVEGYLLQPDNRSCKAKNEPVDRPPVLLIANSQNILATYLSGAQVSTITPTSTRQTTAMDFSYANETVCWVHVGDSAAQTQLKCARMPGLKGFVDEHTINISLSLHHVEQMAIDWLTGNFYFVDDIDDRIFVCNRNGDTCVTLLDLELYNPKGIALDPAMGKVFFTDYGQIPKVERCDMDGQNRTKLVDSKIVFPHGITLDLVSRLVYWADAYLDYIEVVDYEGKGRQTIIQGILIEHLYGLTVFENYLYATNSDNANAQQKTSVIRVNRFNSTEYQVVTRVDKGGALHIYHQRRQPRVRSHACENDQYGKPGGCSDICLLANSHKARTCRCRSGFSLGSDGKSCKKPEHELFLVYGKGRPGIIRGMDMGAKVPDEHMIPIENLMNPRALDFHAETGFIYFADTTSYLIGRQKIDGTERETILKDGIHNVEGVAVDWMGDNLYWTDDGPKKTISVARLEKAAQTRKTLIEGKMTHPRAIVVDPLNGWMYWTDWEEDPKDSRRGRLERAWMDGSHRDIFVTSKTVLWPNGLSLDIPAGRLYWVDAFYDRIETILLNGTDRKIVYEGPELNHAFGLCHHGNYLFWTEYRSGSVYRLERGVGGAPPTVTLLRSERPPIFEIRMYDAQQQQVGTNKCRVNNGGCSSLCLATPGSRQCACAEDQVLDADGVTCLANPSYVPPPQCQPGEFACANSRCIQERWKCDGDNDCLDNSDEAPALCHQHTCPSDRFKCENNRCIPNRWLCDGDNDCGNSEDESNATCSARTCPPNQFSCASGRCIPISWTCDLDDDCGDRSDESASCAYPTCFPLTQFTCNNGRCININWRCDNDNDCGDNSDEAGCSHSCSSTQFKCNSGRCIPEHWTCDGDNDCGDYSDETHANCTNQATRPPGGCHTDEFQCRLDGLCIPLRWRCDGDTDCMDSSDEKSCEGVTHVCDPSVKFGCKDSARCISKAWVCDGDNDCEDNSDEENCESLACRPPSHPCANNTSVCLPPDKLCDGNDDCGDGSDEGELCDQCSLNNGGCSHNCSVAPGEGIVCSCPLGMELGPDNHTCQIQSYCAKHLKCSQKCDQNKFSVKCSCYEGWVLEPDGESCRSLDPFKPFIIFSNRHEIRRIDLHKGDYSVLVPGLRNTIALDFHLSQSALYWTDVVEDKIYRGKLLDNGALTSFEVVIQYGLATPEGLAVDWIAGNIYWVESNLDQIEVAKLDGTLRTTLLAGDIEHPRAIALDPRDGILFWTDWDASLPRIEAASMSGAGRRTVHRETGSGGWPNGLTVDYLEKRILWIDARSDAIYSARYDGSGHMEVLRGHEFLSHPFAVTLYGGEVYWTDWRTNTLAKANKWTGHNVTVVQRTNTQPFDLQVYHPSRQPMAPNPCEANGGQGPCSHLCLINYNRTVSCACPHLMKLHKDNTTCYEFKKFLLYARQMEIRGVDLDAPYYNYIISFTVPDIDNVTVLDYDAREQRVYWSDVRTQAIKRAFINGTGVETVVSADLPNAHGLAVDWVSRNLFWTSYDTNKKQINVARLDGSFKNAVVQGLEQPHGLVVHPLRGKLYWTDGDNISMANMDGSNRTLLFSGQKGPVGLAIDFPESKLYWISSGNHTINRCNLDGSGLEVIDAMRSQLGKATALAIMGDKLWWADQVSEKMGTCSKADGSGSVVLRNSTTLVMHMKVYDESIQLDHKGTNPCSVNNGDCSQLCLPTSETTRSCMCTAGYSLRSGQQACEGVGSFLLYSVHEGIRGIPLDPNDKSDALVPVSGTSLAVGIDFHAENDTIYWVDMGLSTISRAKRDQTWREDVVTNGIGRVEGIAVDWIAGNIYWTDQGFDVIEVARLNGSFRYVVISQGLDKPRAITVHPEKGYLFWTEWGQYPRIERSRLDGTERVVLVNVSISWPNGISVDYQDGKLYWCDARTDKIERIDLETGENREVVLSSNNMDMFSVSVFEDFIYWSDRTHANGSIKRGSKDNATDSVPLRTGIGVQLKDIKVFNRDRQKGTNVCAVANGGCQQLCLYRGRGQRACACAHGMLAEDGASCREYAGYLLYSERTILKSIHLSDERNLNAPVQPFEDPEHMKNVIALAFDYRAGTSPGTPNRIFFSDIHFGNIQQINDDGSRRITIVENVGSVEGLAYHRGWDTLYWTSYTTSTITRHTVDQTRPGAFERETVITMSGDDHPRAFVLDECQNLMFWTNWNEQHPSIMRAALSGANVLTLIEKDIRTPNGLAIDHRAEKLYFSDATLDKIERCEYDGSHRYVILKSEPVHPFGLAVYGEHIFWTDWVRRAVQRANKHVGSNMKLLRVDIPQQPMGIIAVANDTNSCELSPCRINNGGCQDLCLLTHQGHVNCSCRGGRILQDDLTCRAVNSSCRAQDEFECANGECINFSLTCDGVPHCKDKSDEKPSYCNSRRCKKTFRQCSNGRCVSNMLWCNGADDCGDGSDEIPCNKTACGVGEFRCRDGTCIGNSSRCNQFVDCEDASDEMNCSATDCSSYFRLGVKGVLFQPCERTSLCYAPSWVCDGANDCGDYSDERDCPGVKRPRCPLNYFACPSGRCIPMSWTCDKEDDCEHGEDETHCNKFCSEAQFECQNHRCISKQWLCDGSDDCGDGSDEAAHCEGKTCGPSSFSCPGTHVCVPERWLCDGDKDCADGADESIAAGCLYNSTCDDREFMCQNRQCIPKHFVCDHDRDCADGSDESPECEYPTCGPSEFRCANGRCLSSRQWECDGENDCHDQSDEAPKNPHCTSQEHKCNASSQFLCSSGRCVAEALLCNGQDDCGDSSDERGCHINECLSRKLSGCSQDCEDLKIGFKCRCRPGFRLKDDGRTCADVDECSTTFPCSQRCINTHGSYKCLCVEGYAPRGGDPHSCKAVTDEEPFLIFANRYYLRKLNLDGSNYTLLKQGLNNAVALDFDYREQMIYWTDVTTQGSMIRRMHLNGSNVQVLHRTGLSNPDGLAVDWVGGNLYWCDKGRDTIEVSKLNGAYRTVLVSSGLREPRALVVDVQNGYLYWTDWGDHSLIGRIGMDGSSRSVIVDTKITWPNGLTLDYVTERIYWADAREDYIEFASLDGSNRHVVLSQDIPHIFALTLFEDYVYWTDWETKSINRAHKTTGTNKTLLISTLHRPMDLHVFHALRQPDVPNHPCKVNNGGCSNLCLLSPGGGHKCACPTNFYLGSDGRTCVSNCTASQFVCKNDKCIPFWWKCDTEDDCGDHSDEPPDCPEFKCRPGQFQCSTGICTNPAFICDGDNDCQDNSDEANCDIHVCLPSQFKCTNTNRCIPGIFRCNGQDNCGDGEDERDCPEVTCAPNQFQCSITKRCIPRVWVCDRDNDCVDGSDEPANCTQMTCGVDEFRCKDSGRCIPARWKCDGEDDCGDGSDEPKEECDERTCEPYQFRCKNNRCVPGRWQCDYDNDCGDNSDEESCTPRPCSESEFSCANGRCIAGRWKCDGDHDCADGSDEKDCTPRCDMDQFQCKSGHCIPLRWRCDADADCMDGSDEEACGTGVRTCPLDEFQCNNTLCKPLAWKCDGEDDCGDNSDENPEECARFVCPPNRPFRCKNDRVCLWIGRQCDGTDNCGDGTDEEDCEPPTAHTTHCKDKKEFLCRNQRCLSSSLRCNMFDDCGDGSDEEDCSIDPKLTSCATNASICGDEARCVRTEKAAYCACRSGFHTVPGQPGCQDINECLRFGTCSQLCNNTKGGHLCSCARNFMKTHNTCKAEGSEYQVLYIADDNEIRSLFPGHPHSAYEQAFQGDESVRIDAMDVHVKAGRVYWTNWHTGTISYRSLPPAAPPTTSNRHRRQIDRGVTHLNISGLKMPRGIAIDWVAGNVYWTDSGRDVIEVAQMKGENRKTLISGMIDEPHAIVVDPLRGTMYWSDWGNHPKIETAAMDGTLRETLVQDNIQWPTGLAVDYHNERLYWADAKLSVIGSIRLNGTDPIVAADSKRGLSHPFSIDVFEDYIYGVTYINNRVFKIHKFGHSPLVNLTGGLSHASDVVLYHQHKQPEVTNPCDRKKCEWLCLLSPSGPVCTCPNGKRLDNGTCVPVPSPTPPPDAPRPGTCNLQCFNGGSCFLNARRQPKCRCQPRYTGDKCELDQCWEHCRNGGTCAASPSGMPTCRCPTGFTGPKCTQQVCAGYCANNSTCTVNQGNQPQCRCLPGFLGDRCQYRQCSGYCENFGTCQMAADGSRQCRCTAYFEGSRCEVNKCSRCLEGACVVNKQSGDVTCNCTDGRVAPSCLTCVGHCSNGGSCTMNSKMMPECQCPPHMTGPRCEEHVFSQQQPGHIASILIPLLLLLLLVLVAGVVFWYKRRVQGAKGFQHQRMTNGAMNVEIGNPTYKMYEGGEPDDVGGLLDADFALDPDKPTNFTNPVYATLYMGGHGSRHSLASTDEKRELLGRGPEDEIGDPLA

## Aβ42-HyLite488: fluorescently labeled Aβ42
[1]
  internalization by APOE3 pericyte-like cells: internalized fluorescently labeled Aβ42-HyLite488

## RAP: LRP1 inhibitor; competes with APOE for LRP1 binding
LRP1 [2]
  effect of LRP1 inhibition on basolateral-to-apical Aβ40 transcytosis: reduced but did not completely inhibit Aβ transcytosis
LRP1 [3]
  effect of LRP1 inhibition on Aβ42-Hylite488 internalization: internalization was diminished

## rhAPOE2: recombinant human APOE2 (Peprotech, 350 − 12)
[4]; [5]
  effect of recombinant APOE isoform on Aβ42 trafficking: significantly increased the trafficking of Aβ42

## rhAPOE3: recombinant human APOE3 (Peprotech, 350-02)
[4]; APOE3 iPSC-derived BMEC-like cells on Transwell, Aβ40 dosed basolateral with or without rhAPOE3, apical Aβ40 by ELISA, n = 8 wells (Fig. 2D)
  effect on basolateral-to-apical Aβ40 transcytosis: facilitated Aβ40 transcytosis
[4]; APOE KO BMEC-like cells on Transwell, 500 nM rhAPOE plus 500 nM Aβ40 basolateral, apical ELISA, vs no APOE control, n = 12 (Fig. 3D)
  effect of recombinant APOE isoform on Aβ40 trafficking: significantly increased the trafficking of Aβ40

## rhAPOE4: recombinant human APOE4 (Peprotech, 350-04)
[4]; [5]
  effect of recombinant APOE isoform on Aβ42 trafficking: does not provide any increase in Aβ40 or Aβ42 clearance
